# How the values were obtained:
# [1] = Inhibition of yeast Fba; design: species or system Saccharomyces cerevisiae
# [2] = Inhibition of rabbit muscle Fba; design: species or system Oryctolagus cuniculus
# [3] = Inhibition of Helicobacter pyroli recombinant Fba expressed in Escherichia coli JM 109; design: species or system Helicobacter pylori
# [4] = system: Saccharomyces cerevisiae; assay: Ratio of Km of fructose bis-phosphate for yeast Fba to Ki of compound for yeast Fba
# [5] = organism: Oryctolagus cuniculus; assay: Ratio of Km of fructose bis-phosphate for rabbit Fba to Ki of compound for rabbit Fba
# [6] = system: Helicobacter pylori; assay: Ratio of Km of fructose bis-phosphate for Helicobacter pyroli recombinant Fba to Ki of compound for Helicobacter pyroli recombinant Fba
SMILES,Ki [1],Ki [2],Ki [3],Ratio [4],Ratio [5],Ratio [6]
O=P(O)(O)OC[C@@H](O)[C@@H](O)[C@H](O)[C@H](O)COP(=O)(O)O,400 nM,7300 nM,73 nM,0.5,2.74,0.27
O=P(O)(O)OC[C@@H](O)[C@@H](O)[C@H](O)[C@@H](O)COP(=O)(O)O,60 nM,100000 nM,170 nM,3.33,0.2,0.12

# — ChEMBL document CHEMBL1141517 (Bioorg Med Chem Lett, 2008)
